In PubChem BioAssay AID248 (DTP/NCI, 2004):
Where “and” joins values, the source holds several entries; their conditions need not be identical. Equal entries are not always repeated. Inconclusive results and toxic doses are left out. No stated cut-off is given here; in the data, active means T/C of 150% or more; inactive means T/C below 125%.

Test system: L1210 leukemia ip in BDF1 mice, survival T/C
Experiment: NCI In Vivo Anticancer Drug Screen. Data for tumor model L1210 Leukemia (intraperitoneal) in B6D2F1 (BDF1) mice
Settings: endpoint: mean survival time, higher = longer survival
Procedure, shortened: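 Survival endpoint. Drug-treated group vs vehicle group, expressed as T divided by C. Tumor passaged by transplantation.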

Measured: T/C

O=C1NC(c2cccc3ccccc23)Nc2ccccc21 (centres undefined)
inactive: dose: 12.5 mg/kg/injection, schedule: Q01DX009 (oral), vehicle: Klucel (hydroxypropylcellulose) (HPC) 111 % of control | dose: 12.5 mg/kg/injection, schedule: Q01DX009 (oral), vehicle: methylcellulose (MC) 103 % of control and 109 % of control | dose: 16.0 mg/kg/injection, schedule: Q01DX009 (ip), vehicle: Klucel (hydroxypropylcellulose) (HPC) 100 % of control | dose: 16.0 mg/kg/injection, schedule: Q01DX009 (sc), vehicle: Klucel (hydroxypropylcellulose) (HPC) 98 % of control | dose: 16.0 mg/kg/injection, schedule: Q03HX008 (ip), vehicle: Klucel (hydroxypropylcellulose) (HPC) 109 % of control | dose: 16.0 mg/kg/injection, schedule: Q03HX016 (ip), vehicle: Klucel (hydroxypropylcellulose) (HPC) 104 % of control | dose: 16.0 mg/kg/injection, schedule: Q03HX024 (ip), vehicle: Klucel (hydroxypropylcellulose) (HPC) 102 % of control | dose: 32.0 mg/kg/injection, schedule: Q01DX009 (ip), vehicle: Klucel (hydroxypropylcellulose) (HPC) 98 % of control | dose: 32.0 mg/kg/injection, schedule: Q01DX009 (sc), vehicle: Klucel (hydroxypropylcellulose) (HPC) 102 % of control | dose: 40.0 mg/kg/injection, schedule: Q01DX009 (ip), vehicle: methylcellulose (MC) 110 % of control | dose: 40.0 mg/kg/injection, schedule: Q01DX009 (ip), vehicle: other 107 % of control | dose: 40.0 mg/kg/injection, schedule: Q01DX009 (oral), vehicle: Klucel (hydroxypropylcellulose) (HPC) 98 % of control and 100 % of control | dose: 40.0 mg/kg/injection, schedule: Q01DX009 (oral), vehicle: methylcellulose (MC) 110 % of control | dose: 50.0 mg/kg/injection, schedule: Q01DX009 (oral), vehicle: other 106 % of control | dose: 60.0 mg/kg/injection, schedule: Q01DX009 (oral), vehicle: Klucel (hydroxypropylcellulose) (HPC) 100 % of control and 104 % of control | dose: 60.0 mg/kg/injection, schedule: Q01DX009 (oral), vehicle: methylcellulose (MC) 103 % of control | dose: 62.5 mg/kg/injection, schedule: Q01DX005 (oral), vehicle: saline 97 % of control | dose: 62.5 mg/kg/injection, schedule: Q01DX009 (oral), vehicle: saline 97 % of control | dose: 62.5 mg/kg/injection, schedule: Q01DX009 (oral), vehicle: water 104 % of control | dose: 62.5 mg/kg/injection, schedule: Q04DX003 (oral), vehicle: saline 105 % of control | dose: 64.0 mg/kg/injection, schedule: Q01DX009 (ip), vehicle: Klucel (hydroxypropylcellulose) (HPC) 108 % of control | dose: 64.0 mg/kg/injection, schedule: Q01DX009 (sc), vehicle: Klucel (hydroxypropylcellulose) (HPC) 97 % of control | dose: 80.0 mg/kg/injection, schedule: Q01DX009 (ip), vehicle: methylcellulose (MC) 101 % of control | dose: 80.0 mg/kg/injection, schedule: Q01DX009 (oral), vehicle: Klucel (hydroxypropylcellulose) (HPC) 109 % of control | dose: 80.0 mg/kg/injection, schedule: Q01DX009 (oral), vehicle: methylcellulose (MC) 105 % of control and 110 % of control | dose: 100.0 mg/kg/injection, schedule: Q01DX009 (oral), vehicle: Klucel (hydroxypropylcellulose) (HPC) 100 % of control | dose: 100.0 mg/kg/injection, schedule: Q01DX009 (oral), vehicle: saline 104 % of control and 106 % of control | dose: 100.0 mg/kg/injection, schedule: Q04DX003 (ip), vehicle: other 103 % of control | dose: 100.0 mg/kg/injection, schedule: Q04DX003 (oral), vehicle: Klucel (hydroxypropylcellulose) (HPC) 98 % of control and 104 % of control | dose: 100.0 mg/kg/injection, schedule: Q04DX003 (oral), vehicle: methylcellulose (MC) 104 % of control and 107 % of control | dose: 100.0 mg/kg/injection, schedule: Q04DX003 (oral), vehicle: other 105 % of control | dose: 120.0 mg/kg/injection, schedule: Q01DX009 (oral), vehicle: Klucel (hydroxypropylcellulose) (HPC) 104 % of control | dose: 120.0 mg/kg/injection, schedule: Q01DX009 (oral), vehicle: methylcellulose (MC) 98 % of control | dose: 125.0 mg/kg/injection, schedule: Q01DX005 (oral), vehicle: saline 110 % of control | dose: 125.0 mg/kg/injection, schedule: Q01DX009 (oral), vehicle: Klucel (hydroxypropylcellulose) (HPC) 105 % of control | dose: 125.0 mg/kg/injection, schedule: Q01DX009 (oral), vehicle: saline 103 % of control | dose: 125.0 mg/kg/injection, schedule: Q04DX003 (oral), vehicle: saline 102 % of control | dose: 125.0 mg/kg/injection, schedule: Q04DX003 (oral), vehicle: water 106 % of control | dose: 125.0 mg/kg/injection, schedule: Q07DX002 (ip), vehicle: water 103 % of control | dose: 128.0 mg/kg/injection, schedule: Q01DX001 (ip), vehicle: Klucel (hydroxypropylcellulose) (HPC) 103 % of control | dose: 128.0 mg/kg/injection, schedule: Q01DX001 (sc), vehicle: Klucel (hydroxypropylcellulose) (HPC) 100 % of control | dose: 128.0 mg/kg/injection, schedule: Q01DX009 (ip), vehicle: Klucel (hydroxypropylcellulose) (HPC) 94 % of control | dose: 128.0 mg/kg/injection, schedule: Q01DX009 (sc), vehicle: Klucel (hydroxypropylcellulose) (HPC) 103 % of control | dose: 128.0 mg/kg/injection, schedule: Q04DX003 (ip), vehicle: Klucel (hydroxypropylcellulose) (HPC) 99 % of control | dose: 128.0 mg/kg/injection, schedule: Q08DX002 (ip), vehicle: Klucel (hydroxypropylcellulose) (HPC) 97 % of control | dose: 140.0 mg/kg/injection, schedule: Q01DX009 (ip), vehicle: other 104 % of control | dose: 140.0 mg/kg/injection, schedule: Q01DX009 (oral), vehicle: Klucel (hydroxypropylcellulose) (HPC) 104 % of control and 105 % of control | dose: 140.0 mg/kg/injection, schedule: Q01DX009 (oral), vehicle: methylcellulose (MC) 109 % of control and 111 % of control | dose: 150.0 mg/kg/injection, schedule: Q01DX009 (oral), vehicle: Klucel (hydroxypropylcellulose) (HPC) 107 % of control | dose: 150.0 mg/kg/injection, schedule: Q01DX009 (oral), vehicle: other 108 % of control | dose: 150.0 mg/kg/injection, schedule: Q01DX009 (oral), vehicle: saline 108 % of control | dose: 150.0 mg/kg/injection, schedule: Q04DX003 (ip), vehicle: other 98 % of control | dose: 150.0 mg/kg/injection, schedule: Q04DX003 (oral), vehicle: Klucel (hydroxypropylcellulose) (HPC) 107 % of control and 111 % of control | dose: 150.0 mg/kg/injection, schedule: Q04DX003 (oral), vehicle: methylcellulose (MC) 104 % of control and 105 % of control | dose: 175.0 mg/kg/injection, schedule: Q01DX009 (oral), vehicle: methylcellulose (MC) 105 % of control and 108 % of control | dose: 200.0 mg/kg/injection, schedule: Q04DX003 (ip), vehicle: other 96 % of control | dose: 200.0 mg/kg/injection, schedule: Q04DX003 (oral), vehicle: Klucel (hydroxypropylcellulose) (HPC) 95 % of control and 104 % of control | dose: 200.0 mg/kg/injection, schedule: Q04DX003 (oral), vehicle: methylcellulose (MC) 98 % of control and 104 % of control | dose: 200.0 mg/kg/injection, schedule: Q04DX003 (oral), vehicle: other 108 % of control | dose: 225.0 mg/kg/injection, schedule: Q01DX009 (oral), vehicle: methylcellulose (MC) 110 % of control | dose: 250.0 mg/kg/injection, schedule: Q01DX005 (oral), vehicle: saline 107 % of control | dose: 250.0 mg/kg/injection, schedule: Q01DX009 (oral), vehicle: saline 103 % of control | dose: 250.0 mg/kg/injection, schedule: Q04DX003 (ip), vehicle: Klucel (hydroxypropylcellulose) (HPC) 103 % of control | dose: 250.0 mg/kg/injection, schedule: Q04DX003 (oral), vehicle: Klucel (hydroxypropylcellulose) (HPC) 108 % of control | dose: 250.0 mg/kg/injection, schedule: Q04DX003 (oral), vehicle: methylcellulose (MC) 103 % of control and 104 % of control | dose: 250.0 mg/kg/injection, schedule: Q04DX003 (oral), vehicle: saline 105 % of control | dose: 250.0 mg/kg/injection, schedule: Q04DX003 (oral), vehicle: water 104 % of control | dose: 250.0 mg/kg/injection, schedule: Q07DX002 (ip), vehicle: water 97 % of control | dose: 256.0 mg/kg/injection, schedule: Q01DX001 (ip), vehicle: Klucel (hydroxypropylcellulose) (HPC) 103 % of control | dose: 256.0 mg/kg/injection, schedule: Q01DX001 (sc), vehicle: Klucel (hydroxypropylcellulose) (HPC) 101 % of control | dose: 256.0 mg/kg/injection, schedule: Q01DX009 (sc), vehicle: Klucel (hydroxypropylcellulose) (HPC) 94 % of control | dose: 256.0 mg/kg/injection, schedule: Q04DX003 (ip), vehicle: Klucel (hydroxypropylcellulose) (HPC) 111 % of control | dose: 256.0 mg/kg/injection, schedule: Q08DX002 (ip), vehicle: Klucel (hydroxypropylcellulose) (HPC) 111 % of control | dose: 300.0 mg/kg/injection, schedule: Q04DX003 (ip), vehicle: Klucel (hydroxypropylcellulose) (HPC) 94 % of control | dose: 300.0 mg/kg/injection, schedule: Q04DX003 (oral), vehicle: Klucel (hydroxypropylcellulose) (HPC) 109 % of control and 111 % of control | dose: 300.0 mg/kg/injection, schedule: Q04DX003 (oral), vehicle: methylcellulose (MC) 108 % of control | dose: 500.0 mg/kg/injection, schedule: Q01DX005 (oral), vehicle: saline 107 % of control | dose: 500.0 mg/kg/injection, schedule: Q01DX009 (oral), vehicle: saline 110 % of control | dose: 500.0 mg/kg/injection, schedule: Q04DX003 (oral), vehicle: saline 108 % of control | dose: 500.0 mg/kg/injection, schedule: Q04DX003 (oral), vehicle: water 107 % of control | dose: 512.0 mg/kg/injection, schedule: Q01DX001 (sc), vehicle: Klucel (hydroxypropylcellulose) (HPC) 102 % of control | dose: 1000.0 mg/kg/injection, schedule: Q01DX005 (oral), vehicle: saline 108 % of control | dose: 1000.0 mg/kg/injection, schedule: Q04DX003 (oral), vehicle: saline 105 % of control | dose: 1024.0 mg/kg/injection, schedule: Q01DX001 (sc), vehicle: Klucel (hydroxypropylcellulose) (HPC) 100 % of control
